In general, pEC50 refers to the negative decadic logarithm of the EC50, by convention in mol/L.

The subject of test [1] is cleaved PARP. Briefly: Immunoblot of cleaved PARP (apoptotic marker) in SNU-398 cells. The conditions noted are these: SNU-398 HCC cells, 24 h. It counts as cell-based, human. The method, then:
(§1) RIPA buffer containing freshly added protease inhibitors (2 mM PMSF) and protease inhibitor cocktail was used for cell lysis. The lysed cells were incubated for 10 min on ice and subsequently centrifuged at 4° C. for 10 min at 14,000 rpm. The protein concentrations of cell lysates were assessed using Bradford Assay as per manufacturer's instructions. The samples were denatured using 4× Sample buffer at 95° C. for 5 min. The samples were size resolved using polyacrylamide gel (8%) and Mini-PROTEAN Tetra Cell module. The size-resolved proteins were transferred onto PVDF via electroblotting using Mini Trans-Blot® module. The membrane was blocked using 5% BSA in TBST. The membrane was incubated with appropriate primary antibody (overnight) and secondary antibody (1 h). Immobilon Crescendo Western HRP substrate was used for signal development and images were acquired using darkroom development techniques.

The subject of test [2] is SNU-398 cells. Briefly: CellTiter-Glo viability assay, SNU-398. It counts as cell-based, human. The conditions noted are these: for pIC50: read-out: IC50 of cell proliferation / viability. The method, then: (§2) Cells were plated in RPMI culture media (40 μL) in 384-well white, flat-bottom plates (Corning) and incubated at 37° C. in a humidified atmosphere of 5% CO2 overnight. The numbers of cells per well were 1,500 for SNU-398 and SNU-182, 750 for SNU-387, SNU-449, SNU-475 and SNU-423, and 1,000 for H661 and H1299. After overnight incubation, 10 μL of drug (1% DMSO in RPMI) at designed concentrations were added to the cells. The cells were then incubated for 16, 24, 48, 72, or 96 h at 37° C. in a humidified atmosphere of 5% CO2 before CellTiter-Glo reagent (10 μL) was dispensed to the wells. The cells were incubated at room temperature for a minimum of 10 min. After that, luminescence readings were recorded by a Microplate Reader (PHERAstar or Tecan Infinite M200 Pro) according to the manufacturer's instruction for measuring the luminescence.
For orientation: Cellular ATP, detected with luciferase, serves as a proxy for viable cell number.

Test [3] concerns the target T1, SALL4A (Homo sapiens, UniProt Q9UJQ4).
T1 construct: endogenous in cells; host or cells: SNU-398 HCC cells
T1 sequence (Q9UJQ4 1-1053): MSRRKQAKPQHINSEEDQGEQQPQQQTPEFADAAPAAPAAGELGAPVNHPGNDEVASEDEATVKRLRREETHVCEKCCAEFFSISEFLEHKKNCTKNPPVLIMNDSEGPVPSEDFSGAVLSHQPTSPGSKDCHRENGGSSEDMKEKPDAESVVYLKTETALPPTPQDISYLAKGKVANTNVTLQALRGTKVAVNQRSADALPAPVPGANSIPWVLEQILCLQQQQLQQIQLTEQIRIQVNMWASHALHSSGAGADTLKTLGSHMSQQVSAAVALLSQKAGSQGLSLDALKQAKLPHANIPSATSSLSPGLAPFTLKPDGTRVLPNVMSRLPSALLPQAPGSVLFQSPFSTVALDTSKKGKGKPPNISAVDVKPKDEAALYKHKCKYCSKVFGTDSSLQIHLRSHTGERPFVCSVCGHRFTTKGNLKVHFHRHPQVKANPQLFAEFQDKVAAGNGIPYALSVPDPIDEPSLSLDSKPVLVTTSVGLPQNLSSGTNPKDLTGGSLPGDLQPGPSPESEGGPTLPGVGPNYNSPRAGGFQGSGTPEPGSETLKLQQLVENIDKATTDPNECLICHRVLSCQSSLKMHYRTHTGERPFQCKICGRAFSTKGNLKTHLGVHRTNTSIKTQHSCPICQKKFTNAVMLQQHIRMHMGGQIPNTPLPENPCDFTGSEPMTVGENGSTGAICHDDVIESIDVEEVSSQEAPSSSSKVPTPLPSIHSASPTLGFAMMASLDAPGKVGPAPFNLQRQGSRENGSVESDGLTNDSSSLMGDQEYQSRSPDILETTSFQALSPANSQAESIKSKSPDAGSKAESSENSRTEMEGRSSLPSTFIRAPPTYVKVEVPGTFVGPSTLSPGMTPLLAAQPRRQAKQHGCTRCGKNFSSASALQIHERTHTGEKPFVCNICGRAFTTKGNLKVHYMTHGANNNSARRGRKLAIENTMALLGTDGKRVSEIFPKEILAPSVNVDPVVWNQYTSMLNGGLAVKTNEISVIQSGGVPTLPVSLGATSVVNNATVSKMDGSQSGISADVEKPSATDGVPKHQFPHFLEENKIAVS
Briefly: Immunoblot of endogenous SALL4A in SNU-398 HCC cells. The test is classed as cell-based. The conditions noted are these: SNU-398 cells, 24 h, immunoblot quantification. The method, then:
as §1
A head-to-head comparison between the newly discovered SALL4 degrader QE-18-WG07 and IMiDs (Pomalidomide and Thalidomide) was performed. […]
Background: In western blotting, separated proteins are transferred to a membrane and probed.

Test [4] has as its system RBBP4. Briefly: Immunoblot of RBBP4 in SNU-398 cells. It counts as cell-based, human. The conditions noted are these: 16 μM, 24 h. On the procedure:
as §1
26S proteasome complex and neddylation was inhibited by cotreating MG132 at 1 and 3 μM and MLN4924 at 10 and 15 μM for 18 h, 20 h, 24 h or 48 h with desired concentrations of QE-18-WG07 in SNU-398, H661 and SNU-182 cells. After 18 h or 24 h of treatment, cells were then lysed and subjected to further protein extraction and immunoblotting by following the protocol in Example 4. For caspase glo assay, 20 h of cotreatment was performed by following the protocol in Example 5. […]

In test [5] the test system is H661 cells. Kind of test: CellTiter-Glo viability assay, H661. The conditions noted are these: Homo sapiens. The test is classed as cell-based. The method, then: as §2
The target of test [6] is T2, IKZF3 (Homo sapiens, UniProt Q9UKT9).
T2 construct: with immunoblots in SNU-398 HCC cells; endogenous in cells; host or cells: SNU-398 HCC cells
Kind of test: Immunoblot of IKZF3 in SNU-398 HCC cells. The test is classed as cell-based. Conditions: SNU-398 cells. The method, then: as §1

Test [7] concerns c-myc. Kind of test: Immunoblot of c-myc (SALL4 downstream target) in SNU-398 cells. It counts as cell-based, human. Conditions: Homo sapiens; SNU-398 HCC cells, 24 h treatment; read-out: suppression of SALL4 downstream target c-myc, IC50. The method, then:
as §1

pEC50, pIC50: −log10 of the molar value. Read-outs that look alike come from different tables or passages of the source.

T2 sequence (Q9UKT9 whole entry): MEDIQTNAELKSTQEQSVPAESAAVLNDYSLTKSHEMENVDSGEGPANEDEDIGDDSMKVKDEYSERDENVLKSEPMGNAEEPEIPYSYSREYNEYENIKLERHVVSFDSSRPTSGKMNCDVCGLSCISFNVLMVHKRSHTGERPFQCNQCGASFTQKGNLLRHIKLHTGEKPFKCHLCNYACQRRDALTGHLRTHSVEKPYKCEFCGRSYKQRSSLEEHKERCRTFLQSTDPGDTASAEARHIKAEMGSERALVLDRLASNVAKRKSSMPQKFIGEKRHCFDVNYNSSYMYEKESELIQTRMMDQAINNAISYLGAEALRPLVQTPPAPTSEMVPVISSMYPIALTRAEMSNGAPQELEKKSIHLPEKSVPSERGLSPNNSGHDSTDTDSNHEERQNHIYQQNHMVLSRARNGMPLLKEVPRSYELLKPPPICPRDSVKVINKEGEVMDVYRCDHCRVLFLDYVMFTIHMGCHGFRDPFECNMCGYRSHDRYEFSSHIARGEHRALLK

For the compound `COc1ccccc1NC(=O)Nc1ccc([N+](=O)[O-])cc1O` [QE-18-WG07], the “cleavage of PARP (apoptosis induction)” value in test [1] is listed as “prominent cleavage of PARP”. The pIC50 was 6.40 in test [2] (72 h); 6.55 in test [2] (Homo sapiens, SNU-398, 72 h, 72 h); 6.28 in test [5] (NCI-H661, 72 h, read-out: IC50 of cell viability); about 5.29 in test [7]. For the same compound, the Emax at 1 µM in test [2] (Homo sapiens, 72 h, achieved at 1 μM, read-out: maximum growth inhibition Emax) lay in the range of 90 to 100%; in test [5] (NCI-H661, 72 h, achieved at 1 μM, read-out: maximum growth inhibition Emax) it was 90 to 100%. Also, the pEC50 in test [2] (Homo sapiens, 72 h cell viability, read-out: half maximal growth inhibition EC50) is 6.51; in test [5] (NCI-H661, 72 h cell viability, read-out: half maximal growth inhibition EC50) it was 6.38. The same compound came in with a DC50 in test [3] of about 4230 nM. For the same compound, the Dmax in test [3] is 57%. The “effect on the level of RBBP4” value in test [4] is “no observable effect”. In addition, the “degradation of IKZF3” value in test [6] was “did not degrade”.

These data come from patent publication US20240335429A1, “MOLECULAR GLUE AND SALL4 DEGRADER” (National University of Singapore, priority 2021, published 2024).
